Assay results as given in patent publication US7148249B2, “Indolinones substituted by heterocycles, the preparation thereof and their use as medicaments” (Boehringer Ingelheim Pharma GmbH & Co. KG, priority 2002, dated 2006).

Key:
[1] = tested on: Human umbilical endothelial cells (HUVEC); experiment: Inhibition of VEGF165-stimulated HUVEC proliferation (3H-thymidine incorporation); format: cell-based; details: Homo sapiens; HUVEC proliferation stimulated with 5 ng/ml VEGF165 and 10 μg/ml heparin; 76 h incubation + 16 h 3H-thymidine
Description: Human umbilical endothelial cells (HUVEC) were cultivated in IMDM (Gibco BRL), supplemented with 10% foetal calf serum (FBS) (Sigma), 50 μM of β-mercaptoethanol (Fluka), standard antibiotics, 15 μg/ml of endothelial cell growth factor (ECGS, Collaborative Biomedical Products) and 100 μg/ml of heparin (Sigma) on gelatine-coated culture dishes (0.2% gelatine, Sigma) at 37° C., under 5% CO2 in a water-saturated atmosphere.
In order to investigate the inhibitory activity of the compounds according to the invention the cells were “starved” for 16 hours, i.e. kept in culture medium without growth factors (ECGS+heparin). The cells were detached from the culture dishes using trypsin/EDTA and washed once in serum-containing medium. Then they were seeded out in amounts of 2.5×10^3 cells per well.
The proliferation of the cells was stimulated with 5 ng/ml of VEGF165 (vascular endothelial growth factor; H. Weich, GBF Braunschweig) and 10 μg/ml of heparin. As a control, 6 wells in each dish were not stimulated.
The compounds according to the invention were dissolved in 100% dimethylsulphoxide and added to the cultures in various dilutions as triple measurements, the maximum dimethylsulphoxide concentration being 0.3%.
The cells were incubated for 76 hours at 37° C., then for a further 16 hours ^3H-thymidine (0.1 μCi/well, Amersham) was added in order to determine the DNA synthesis. Then the radioactively labelled cells were immobilised on filter mats and the radioactivity incorporated was measured in a β-counter. In order to determine the inhibitory activity of the compounds according to the invention the mean value of the non-stimulated cells was subtracted from the mean value of the factor-stimulated cells (in the presence or absence of the compounds according to the invention).
The relative cell proliferation was calculated as a percentage of the control (HUVEC without inhibitor) and the concentration of active substance which inhibits the proliferation of the cells by 50% (IC50) was determined.

SMILES	IC50 [1] [nM]	melting point
O=C1Nc2cc(Cl)ccc2/C1=C(/Nc1ccc(CN2CCCC2)cc1)c1ccc2nc[nH]c2c1 [(ai), 3-(Z)-{1-[4-(pyrrolidin-1-yl-methyl)-phenylamino]-1-(benzimidazol-5-yl)-methylene}-6-chloro-2-indolinone]	3	277 to 279 °C
Cc1nc2ccc(/C(Nc3ccc(CN4CCCC4)cc3)=C3/C(=O)Nc4cc(Cl)ccc43)cc2[nH]1 [(ay), 3-(Z)-{1-[4-(pyrrolidin-1-yl-methyl)-phenylamino]-1-(2-methyl-benzimidazol-5-yl)-methylene}-6-chloro-2-indolinone]	19	295 to 297 °C (dec.)
CCNCc1ccc(N/C(=C2\C(=O)Nc3cc(C(=O)OC)ccc32)c2ccc3c(c2)OCCO3)cc1 [(u), 3-(Z)-{1-(4-[ethylamino-methyl]-phenylamino)-1-(3,4-ethylenedioxyphenyl)-methylene}-6-methoxycarbonyl-2-indolinone]	0.8	266 °C
CN(C)Cc1ccc(N/C(=C2\C(=O)Nc3cc(Cl)ccc32)c2ccc3c(c2)ncn3C)cc1 [(f), 3-(Z)-{1-[4-(dimethylaminomethyl)-phenylamino]-1-(1-methyl-benzimidazol-5-yl)-methylene}-6-chloro-2-indolinone]	2	288 °C (dec.)
CN(C)CC(=O)N(C)c1ccc(N/C(=C2\C(=O)Nc3cc(Cl)ccc32)c2ccc3c(c2)ncn3C)cc1 [(ak), 3-(Z)-{1-(4-[N-methyl-N-(dimethylaminomethylcarbonyl)-amino]-phenylamino)-1-(1-methyl-benzimidazol-5-yl)-methylene}-6-chloro-2-indolinone]	30	270 °C
CN(C)Cc1ccc(N/C(=C2\C(=O)Nc3ccccc32)c2ccc3nc[nH]c3c2)cc1 [(ag), 3-(Z)-{1-[4-(dimethylaminomethyl)-phenylamino]-1-(benzimidazol-5-yl)-methylene}-2-indolinone]	31	273 to 277 °C (dec.)
COC(=O)c1ccc2c(c1)NC(=O)/C2=C(\Nc1ccc(CN2CCN(C)CC2)cc1)c1ccc2c(c1)OCCO2 [(v), 3-(Z)-{1-(4-[4-methylpiperazin-1-yl-methyl]-phenylamino)-1-(3,4-ethylenedioxy-phenyl)-methylene}-6-methoxycarbonyl-2-indolinone]	1	271 to 273 °C
CN(C)CC(=O)N(C)c1ccc(N/C(=C2\C(=O)Nc3ccccc32)c2ccc3c(c2)OCO3)cc1 [(aj), 3-(Z)-{1-(4-[N-methyl-N-(dimethylaminomethylcarbonyl)-amino]-phenylamino)-1-(3,4-methylenedioxyphenyl)-methylene}-2-indolinone]	13	221 to 222 °C
CCNCc1ccc(N/C(=C2\C(=O)Nc3cc(F)ccc32)c2ccc3c(c2)OCCO3)cc1 [(l), 3-(Z)-{1-[4-(ethylaminomethyl)-phenylamino]-1-(3,4-ethylenedioxyphenyl)-methylene}-6-fluoro-2-indolinone]	10	153 to 154 °C
CCCS(=O)(=O)N(CCN(C)C)c1ccc(N/C(=C2\C(=O)Nc3cc(Cl)ccc32)c2ccncc2)cc1 [(ax), 3-(Z)-{1-(4-[N-(propanesulphonyl)-N-(2-dimethylaminoethyl)-amino]-phenylamino)-1-(4-pyridyl)-methylene}-6-chloro-2-indolinone]	37	228 to 232 °C
